Where “and” joins values, the source holds several entries; their conditions need not be identical. Identical values can stand only once. Entries after “also recorded” stand apart in the source; their conditions may differ.
What was measured:
[1] = test system: intermediate-2 or high-risk myelofibrosis (MF) relapsed/refractory to JAK inhibitor; assay: Phase 2 study: symptom response (total symptom score, TSS, MFSAF v2 at week 24); assay type: in vivo, human; details: 9.4 mg/kg
From the text: (§1) Diagnosis of primary, post-essential thrombocythemia, or post-polycythemia vera MF was required; other eligibility criteria included measurable splenomegaly (by magnetic resonance imaging [MRI]), active MF-related systemic symptoms and platelet count ≥75×10^9/L. Primary endpoints were: spleen response rate (% achieving ≥35% spleen volume reduction [SVR] by MRI at week 24); and symptom response rate (% achieving ≥50% reduction in total symptom score [TSS] per the Myelofibrosis Symptom Assessment Form (MFSAF) v2 at week 24). Key secondary endpoints included safety, overall survival (OS), treatment response, molecular response, and pharmacokinetic and pharmacodynamic relationships.

[2] = test system: patients with essential thrombocythemia; details: phase 2, essential thrombocythemia; cited from earlier work
telomerase activity = assay: Pharmacodynamics: telomerase activity (TA) reduction from baseline in study subjects; assay type: in vivo, human; details: for subjects with Telomerase Activity >30% reduction from baseline / subjects with Telomerase Activity >50% reduction from baseline: both arms
From the text: In other embodiments of the invention, telomerase activity and level of hTERT expression in biological samples obtained from patients can be determined to evaluate pharmacodynamic effects and/or monitor patients being treated with a telomerase inhibition. The telomerase activity can be measured using the TRAP (Telomeric Repeat Amplification Protocol) telomerase activity assay. The level of hTERT expression can be determined by measuring the level of hTERT RNA expression in the cells in the biological sample using northern blots or serial analysis of gene expression (SAGE) or other methods.
(§2) Telomerase activity and hTERT was analyzed to evaluate pharmacodynamic effects for imetelstat.

[3] = test system: intermediate-2 (int-2) or high-risk myelofibrosis (MF); details: 33-patient pilot study, Tefferi 2015; cited from earlier work
[4] = test system: intermediate-2 or high-risk myelofibrosis (MF) relapsed/refractory to JAK inhibitor; assay: Phase 2 study: spleen response (spleen volume reduction, SVR, by MRI at week 24); assay type: in vivo, human
From the text: as §1

human telomerase = details: Asai 2003; Herbert 2005; cited from earlier work
[5] = test system: various cancer cell lines and tumor xenografts in mice; details: cited from earlier work
hTERT RNA expression = assay: Pharmacodynamics: hTERT RNA level reduction from baseline, whole blood; assay type: in vivo, human; details: both arms
Procedure: as §2

[6] = Phase 2 study: adverse events on treatment; assay type: in vivo, human
From the text: as §1

[7] = test system: intermediate-2 or high-risk myelofibrosis (MF) relapsed/refractory to JAK inhibitor; assay: Phase 2 study: overall survival (OS); assay type: in vivo, human
From the text: as §1

[8] = all with baseline TL data, N = 53
[9] = Spleen Response at wk 24 by IRC: No
[10] = Spleen Response at wk 24 by IRC: Yes
[11] = 9.4 mg/kg, all with baseline TL data, N = 53
[12] = 9.4 mg/kg arm, Non-TN (MUT), second clinical cutoff
[13] = 9.4 mg/kg arm, Triple Negative (TN), second clinical cutoff
[14] = 4.7 MG/KG, all subjects with baseline TL (N 40)
[15] = 4.7 MG/KG, all subjects with baseline TL (N 40), first clinical cutoff
[16] = 4.7 MG/KG, baseline TL <=Median Value
[17] = 4.7 MG/KG, baseline TL >Median Value
[18] = 9.4 MG/KG, all subjects with baseline TL (N 53)
[19] = 9.4 MG/KG, baseline TL <=Median Value
[20] = 9.4 MG/KG, baseline TL >Median Value

imetelstat: 13-mer oligonucleotide that targets the RNA template of human telomerase; first-in-class telomerase inhibitor (TAGGGTTAGACAA; 5' palmitoyl amidopropyl, thio-phosphoramidate, sodium salt, further chemistry not given here)
subjects with TSS >= 50% decrease at week 24, No ([1]; Longer TL (>Median value), 24 subjects): 18 (75%)
subjects with TSS >= 50% decrease at week 24, No ([1]; Shorter TL (<= Median value), 29 subjects): 19 (65.6%)
subjects with TSS >= 50% decrease at week 24, No [1, 8]: (69.8%)
subjects with TSS >= 50% decrease at week 24, Yes [1, 8]: (30.2%)
JAK2 V617F and CALR mutant allele burdens [2]: significant reduction
platelet-lowering activity [2]: platelet-lowering activity
PD effect (telomerase activity and hTERT RNA reduction), 9.4 vs […] (telomerase activity; 9.4 mg/kg arm vs […] arm): dose-dependent PD effect
subjects achieving TA >=30% decrease from baseline at any timepoint (telomerase activity; 4.7 MG/KG, 34 subjects with baseline): 14 (41.2%)
subjects achieving TA >=30% decrease from baseline at any timepoint (telomerase activity; 9.4 MG/KG, 45 subjects with baseline): 28 (62.2%)
subjects with Telomerase Activity >30% reduction from baseline (telomerase activity; [9]): 41/70 (58.6%)
subjects with Telomerase Activity >50% reduction from baseline (telomerase activity; [9]): 34/70 (48.6%)
subjects with Telomerase Activity >30% reduction from baseline (telomerase activity; [10]): 3/4 (75%)
subjects with Telomerase Activity >50% reduction from baseline (telomerase activity; [10]): 2/4 (50%)
subjects with Telomerase Activity >30% reduction from baseline (telomerase activity; TSS Response at wk 24: No): 29/56 (51.8%)
subjects with Telomerase Activity >50% reduction from baseline (telomerase activity; TSS Response at wk 24: No): 24/56 (42.9%)
subjects with Telomerase Activity >30% reduction from baseline (telomerase activity; TSS Response at wk 24: Yes): 15/18 (83.3%)
subjects with Telomerase Activity >50% reduction from baseline (telomerase activity; TSS Response at wk 24: Yes): 12/18 (66.7%)
clinical activity and safety profile [3]: Clinical activity and an acceptable safety profile
responses (SVR or TSS) in patients with HMR having greater than one mutation ([4]; 9.4 mg/kg): responses were observed
rate of response (SVR or TSS), LMR or HMR with only 1 mutation compared to HMR with more than 1 mutations ([4]; 9.4 mg/kg arm, week 24): enriched
rate of response (SVR or TSS), TN group compared to Non-TN group ([4]; 9.4 mg/kg arm, week 24): enriched
rate of response (SVR or TSS), shorter baseline TL compared to longer TL ([4]; 9.4 mg/kg arm, week 24): enriched; also recorded: higher rate of response
subjects with SVR >= 35% at week 24 by IRC, No ([4]; 9.4 mg/kg, Longer TL (>Median value), 24 subjects): 23 (92.7%)
subjects with SVR >= 35% at week 24 by IRC, No ([4]; 9.4 mg/kg, Shorter TL (<= Median value), 29 subjects): 24 (82.75%)
subjects with SVR >= 35% at Week 24 by IRC, Yes [4, 11]: (10.5%)
subjects with SVR >= 35% at week 24 by IRC, No [4, 11]: (89.5%)
inhibition of telomerase enzymatic activity (human telomerase): potent competitive inhibitor
telomerase activity and cell proliferation [5]: inhibits telomerase activity and cell proliferation
subjects with hTERT>50% reduction from baseline (hTERT RNA expression; TSS Response at wk 24: No): 45/81 (55.6%)
subjects with hTERT>50% reduction from baseline (hTERT RNA expression; TSS Response at wk 24: Yes): 15/24 (62.5%)
Imetelstat-related hepatic toxicities, confirmed by independent Hepatic Review Committee [6]: not observed
OS trend, shorter baseline TL (<= median TL) ([7]; 9.4 mg/kg arm): better OS trend
Median survival, months (95% CI) [7, 12]: 24.6 (19.7, NE) months
Percentage of Subjects Who Died [7, 12]: 21/41 (51.2%)
Median survival, months (95% CI) ([7]; 9.4 mg/kg arm, Non-TN subjects, first clinical cutoff): 23.6 months
OS HR (Hazard Ratio) (95% CI) ([7]; 9.4 mg/kg arm, Non-TN vs TN, second clinical cutoff): 2.60 (0.89, 7.59)
Median survival, months (95% CI) ([7]; 9.4 mg/kg arm, TN subjects, first clinical cutoff): not estimable
Median survival, months (95% CI) [7, 13]: NE (23.2, NE)
Percentage of Subjects Who Died [7, 13]: 4/16 (25.0%)
18-months survival rate % (95% CI) [7, 14]: 68.2 %
24-months survival rate % (95% CI) [7, 14]: 39.6 %
Number of events (OS) [7, 15]: 20
Overall Survival (months) Median (95% CI) [7, 15]: 22.3 (18.2, NE) months
18-months survival rate % (95% CI) [7, 16]: 76.7 %
24-months survival rate % (95% CI) [7, 16]: 34.1 %
Number of events (%) (OS) ([7]; 4.7 MG/KG, baseline TL <=Median Value, first clinical cutoff): 10(25.0%)
18-months survival rate % (95% CI) [7, 17]: 61.0 %
24-months survival rate % (95% CI) [7, 17]: 46.6 %
Number of events (%) (OS) ([7]; 4.7 MG/KG, baseline TL >Median Value, first clinical cutoff): 10(25.0%)
Overall Survival (months) Median (95% CI) ([7]; 4.7 MG/KG, longer baseline TL (>Median Value), first clinical cutoff): 22.3 (16.6, NE) months and 22.3 months
Overall Survival (months) Median (95% CI) ([7]; 4.7 MG/KG, shorter baseline TL (<=Median Value), first clinical cutoff): 20.3 (17.2, NE) months and 20.3 months
18-months survival rate % (95% CI) [7, 18]: 75.9 %
24-months survival rate % (95% CI) [7, 18]: 54.2 %
Number of events (OS) ([7]; 9.4 MG/KG, all subjects with baseline TL (N 53), first clinical cutoff): 18
18-months survival rate % (95% CI) [7, 19]: 81.2 %
24-months survival rate % (95% CI) [7, 19]: 59.3 %
Number of events (%) (OS) ([7]; 9.4 MG/KG, baseline TL <=Median Value, first clinical cutoff): 8(15.1%)
18-months survival rate % (95% CI) [7, 20]: 69.8 %
24-months survival rate % (95% CI) [7, 20]: 47.6 %
Number of events (%) (OS) ([7]; 9.4 MG/KG, baseline TL >Median Value, first clinical cutoff): 10(18.9%)
Overall Survival (months) Median (95% CI) ([7]; 9.4 MG/KG, longer baseline TL (>Median Value), first clinical cutoff): 22.8 months
Overall Survival (months) Median (95% CI) ([7]; 9.4 MG/KG, shorter baseline TL (<=Median Value), first clinical cutoff): not estimable
